Data from US11230711B2, “Inhibition of LET7I as a means to enhance the protective effect of progesterone against stroke” (UNIVERSITY OF NORTH TEXAS HEALTH SCIENCE CENTER, priority 2017, dated 2022).

Experiments:
[1] = test system: C57BL/6J mice; assay: Ischemic lesion / infarct size by TTC staining after middle cerebral artery occlusion (MCAo); type: in vivo, mouse
Excerpt: Mice will receive bilateral ovariectomy (OVX) using a dorsal approach under isoflurane anesthesia. A small cut is made through skin and abdominal muscles in left and right lateral abdomen. The arteries to left and right ovaries will be ligated, and ovaries will be cut. The muscles and skin will be sutured with 4-0 Vicryl absorbable suture.
Fused steroid pellets will be made using the flash-melt method described by Ratka and Simpkins. The pellets (containing P4 or control) will be implanted subcutaneously into abdominal area.
MCAo will be used to induce transient focal cerebral ischemia (as previously described). Briefly, under isoflurane anesthesia, a mid line incision will be made on the neck. Common carotid artery (CCA), external carotid artery (ECA) and internal carotid artery (ICA) will be dissected from the connective tissue. A silicon coated 6-0 nylon monofilament will be inserted into the left ECA and advanced till it occludes the origin of MCA. The MCA will be occluded for 60 minutes and then reperfusion attained by withdrawing the suture.
ICV injections will be performed as described by Sananbenesi et al.. In brief, mice will be anaesthetized and affixed with a cannula ipsilateral to the side of surgery (coordinates from Bregma: AP1/4_0.4 mm, L1/4_1.15 mm, V1/4_2.0 mm). […]

[2] = test system: C57BL/6J mice; assay: Wire suspension (wire hanging) test of grip strength / motor function after MCAo; type: in vivo, mouse; conditions: Example 2, FIG. 13
Procedure: Animals will be trained 2 days before MCAo procedure and will be tested on day 3, 7, and 14 post stroke. Animals will be allow to suspend their bodies on a single wire stretched between 2 posts 50 cm above the ground. Between the posts, a soft pillow will be placed to avoid injury in case of a fall. Training will be achieved simply with several rounds of habituation and trials. In the actual testing phase, mice will be tested 3 times and average performance is recorded as final values.
All mice were first ovariectomized to deplete endogenous ovarian hormone levels. Two weeks after ovariectomy (OVX), P4 pellets were subcutaneously implanted into these animals to replenish their progesterone levels. In parallel, different groups received cholesterol pellet implantations to serve as vehicle control. One week after pellet implantation, stroke was induced in these mice using middle cerebral artery occlusion (MCAo) procedure. In parallel, different groups received sham operation (non-stroke). […]
wire suspension test: In ordered to assess motor function recovery with different treatments, wire suspension test, a test of grip strength and endurance, was used, as described elsewhere (58). […] The latency for animals to fall off the wire was recorded. […] Performances of these mice was evaluated at day 3, 7 and 14 post stroke.

CC(=O)[C@H]1CC[C@H]2[C@@H]3CCC4=CC(=O)CC[C@]4(C)[C@H]3CC[C@]12C [P4, progesterone]
stroke-induced lesion size (ischemic injury), TTC stain ([1]; Example 1, MCAo mice, P4 pellet, ICV Let-7i antagomir, FIG. 6): no statistically significant effect
relative infarct size (ischemic injury), TTC staining ([1]; Example 2, 24 h after MCAo, vs cholesterol+scrambled, FIG. 12B): did not
motor function recovery (wire suspension test) ([2]; day 7): partial recovery
motor function recovery (wire suspension test) ([2]; day 14): partial recovery
